Reference: patent US9693556B2, “Herbicidal pyridazinone derivatives” (SYNGENTA LIMITED, priority 2011, dated 2017)

Assays:
Assay type in all cases: in vivo
[1] = test system: Amaranthus retoflexus (AMARE); assay: Post-emergence herbicidal glasshouse test on Amaranthus retoflexus; conditions: post-emergence; 1000 g/h; evaluated after 13 days
Method in brief: (§1)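 Scored on a five-point scale (1 = 0-19% to 5 = 80-100% damage) 13 days after treatment. Application rate 1000 g/h in acetone/water (50:50) containing 0.5% Tween 20, sprayed one day post-sowing for pre-emergence or eight days for post-emergence; glasshouse at 24/16° C, 14 h light, 65% humidity.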

Solanum nigrum (SOLNI) [2] = assay: Post-emergence herbicidal glasshouse test on Solanum nigrum; conditions: post-emergence; 1000 g/h; evaluated after 13 days
Method in brief: as §1

[3] = test system: Ipomoea hederacea (IPOHE); assay: Pre-emergence herbicidal glasshouse test on Ipomoea hederacea; conditions: pre-emergence; 1000 g/h; evaluated after 13 days
Method in brief: as §1

[4] = test system: Alopecurus myosuroides (ALOMY); assay: Post-emergence herbicidal glasshouse test on Alopecurus myosuroides; conditions: post-emergence; 1000 g/h; evaluated after 13 days
Method in brief: as §1

[5] = test system: Echinochloa crus-galli (ECHCG); assay: Post-emergence herbicidal glasshouse test on Echinochloa crus-galli; conditions: post-emergence; 1000 g/h; evaluated after 13 days
Method in brief: as §1

[6] = test system: Echinochloa crus-galli (ECHCG); assay: Pre-emergence herbicidal glasshouse test on Echinochloa crus-galli; conditions: pre-emergence; 1000 g/h; evaluated after 13 days
Method in brief: as §1

Setaria faberi (SETFA) [7] = assay: Pre-emergence herbicidal glasshouse test on Setaria faberi; conditions: pre-emergence; 1000 g/h; evaluated after 13 days
Method in brief: as §1

Setaria faberi (SETFA) [8] = assay: Post-emergence herbicidal glasshouse test on Setaria faberi; conditions: post-emergence; 1000 g/h; evaluated after 13 days
Method in brief: as §1

[9] = test system: Ipomoea hederacea (IPOHE); assay: Post-emergence herbicidal glasshouse test on Ipomoea hederacea; conditions: post-emergence; 1000 g/h; evaluated after 13 days
Method in brief: as §1

[10] = test system: Amaranthus retoflexus (AMARE); assay: Pre-emergence herbicidal glasshouse test on Amaranthus retoflexus; conditions: pre-emergence; 1000 g/h; evaluated after 13 days
Method in brief: as §1

[11] = test system: Alopecurus myosuroides (ALOMY); assay: Pre-emergence herbicidal glasshouse test on Alopecurus myosuroides; conditions: pre-emergence; 1000 g/h; evaluated after 13 days
Method in brief: as §1

Solanum nigrum (SOLNI) [12] = assay: Pre-emergence herbicidal glasshouse test on Solanum nigrum; conditions: pre-emergence; 1000 g/h; evaluated after 13 days
Method in brief: as §1

| SMILES | POST Application AMARE herbicidal damage (five point scale) [1] | POST Application SOLNI herbicidal damage (five point scale) (Solanum nigrum (SOLNI) [2]) | PRE Application IPOHE herbicidal damage (five point scale) [3] | POST Application ALOMY herbicidal damage (five point scale) [4] | POST Application ECHCG herbicidal damage (five point scale) [5] | PRE Application ECHCG herbicidal damage (five point scale) [6] | PRE Application SETFA herbicidal damage (five point scale) (Setaria faberi (SETFA) [7]) | POST Application SETFA herbicidal damage (five point scale) (Setaria faberi (SETFA) [8]) | POST Application IPOHE herbicidal damage (five point scale) [9] | PRE Application AMARE herbicidal damage (five point scale) [10] | PRE Application ALOMY herbicidal damage (five point scale) [11] | PRE Application SOLNI herbicidal damage (five point scale) (Solanum nigrum (SOLNI) [12]) |
| --- | --- | --- | --- | --- | --- | --- | --- | --- | --- | --- | --- | --- |
| Cc1cc(C)c2cc(-c3cnn(C)c(=O)c3O)c(C(F)(F)F)nc2n1 [Compound 5.002] | 5 (5=80-100% damage) | 5 (5=80-100% damage) | 3 (3=40-59% damage) | 1 (1=0-19% damage) | 3 (3=40-59% damage) | 2 (2=20-39% damage) | 1 (1=0-19% damage) | 2 (2=20-39% damage) | 5 (5=80-100% damage) | 5 (5=80-100% damage) | 1 (1=0-19% damage) | 1 (1=0-19% damage) |
| Cc1cc(-c2cnn(C)c(=O)c2O)c(=O)n(-c2ccccc2)c1 [Compound 6.001] | 5 (5=80-100% damage) | 5 (5=80-100% damage) | 1 (1=0-19% damage) | 3 (3=40-59% damage) | 5 (5=80-100% damage) | 1 (1=0-19% damage) | 1 (1=0-19% damage) | 3 (3=40-59% damage) | 1 (1=0-19% damage) | 1 (1=0-19% damage) | 1 (1=0-19% damage) | 1 (1=0-19% damage) |
| Cc1cc(-c2cnn(C)c(=O)c2O)c(=O)n(-c2ccsc2)c1 [Compound 6.002] | 4 (4=60-79% damage) | 3 (3=40-59% damage) | 2 (2=20-39% damage) | 1 (1=0-19% damage) | 1 (1=0-19% damage) | 1 (1=0-19% damage) | 1 (1=0-19% damage) | 1 (1=0-19% damage) | 2 (2=20-39% damage) | 5 (5=80-100% damage) | 1 (1=0-19% damage) | 5 (5=80-100% damage) |
| CCCCn1cc(C)cc(-c2cnn(C)c(=O)c2O)c1=O [Compound 6.003] | 4 (4=60-79% damage) | 4 (4=60-79% damage) | 1 (1=0-19% damage) | 2 (2=20-39% damage) | 4 (4=60-79% damage) | 1 (1=0-19% damage) | 1 (1=0-19% damage) | 2 (2=20-39% damage) | 2 (2=20-39% damage) | 1 (1=0-19% damage) | 1 (1=0-19% damage) | 1 (1=0-19% damage) |
| Cn1ncc(-n2cccc(-c3ccc(C(F)(F)F)cc3)c2=O)c(O)c1=O [Compound 7.001] | 3 (3=40-59% damage) | 4 (4=60-79% damage) | 1 (1=0-19% damage) | 2 (2=20-39% damage) | 4 (4=60-79% damage) | 1 (1=0-19% damage) | 1 (1=0-19% damage) | 3 (3=40-59% damage) | 2 (2=20-39% damage) | 1 (1=0-19% damage) | 1 (1=0-19% damage) | 1 (1=0-19% damage) |
| COc1cccc(-c2c(C(F)(F)F)ccn(-c3cnn(C)c(=O)c3O)c2=O)c1 [Compound 7.003] | 5 (5=80-100% damage) | 5 (5=80-100% damage) | 3 (3=40-59% damage) | 4 (4=60-79% damage) | 5 (5=80-100% damage) | 4 (4=60-79% damage) | 4 (4=60-79% damage) | 3 (3=40-59% damage) | 3 (3=40-59% damage) | 5 (5=80-100% damage) | 4 (4=60-79% damage) | 5 (5=80-100% damage) |
| Cn1ncc(-n2ccc(C(F)(F)F)c(-c3cccc(OC(F)(F)F)c3)c2=O)c(O)c1=O [Compound 7.005] | 5 (5=80-100% damage) | 5 (5=80-100% damage) | 1 (1=0-19% damage) | 4 (4=60-79% damage) | 5 (5=80-100% damage) | 5 (5=80-100% damage) | 4 (4=60-79% damage) | 4 (4=60-79% damage) | 4 (4=60-79% damage) | 5 (5=80-100% damage) | 4 (4=60-79% damage) | 5 (5=80-100% damage) |
| Cc1ccc(-c2c(C(F)(F)F)ccn(-c3cnn(C)c(=O)c3O)c2=O)cc1 [Compound 7.006] | 4 (4=60-79% damage) | 5 (5=80-100% damage) | 2 (2=20-39% damage) | 3 (3=40-59% damage) | 5 (5=80-100% damage) | 5 (5=80-100% damage) | 4 (4=60-79% damage) | 3 (3=40-59% damage) | 3 (3=40-59% damage) | 5 (5=80-100% damage) | 3 (3=40-59% damage) | 5 (5=80-100% damage) |
| Cc1ccc(F)cc1-c1c(C(F)(F)F)ccn(-c2cnn(C)c(=O)c2O)c1=O [Compound 7.007] | 5 (5=80-100% damage) | 5 (5=80-100% damage) | 4 (4=60-79% damage) | 5 (5=80-100% damage) | 5 (5=80-100% damage) | 5 (5=80-100% damage) | 5 (5=80-100% damage) | 5 (5=80-100% damage) | 5 (5=80-100% damage) | 5 (5=80-100% damage) | 5 (5=80-100% damage) | 5 (5=80-100% damage) |
